{
  "source": "patent US20100267561A1",
  "about": "“HERBICIDAL PYRIDAZINONE DERIVATIVES” (priority 2007, published 2010)",
  "assay_in_all_cases": "Test B pre-/postemergence plant response",
  "assay_type_in_all_cases": "in vivo",
  "key": {"[1]": {"tested_on": "corn (Zea mays)", "details": "Preemergence", "excerpt": "(§1) Seeds of plant species selected from blackgrass (Alopecurus myosuroides), downy bromegrass (Bromus tectorum), green foxtail (Setaria viridis), Italian ryegrass (Lolium multiflorum), wheat (Triticum aestivum), wild oat (Avena fatua), catchweed bedstraw (Galium aparine), bermudagrass (Cynodon dactylon), surinam grass (Brachiaria decumbens), cocklebur (Xanthium strumarium), corn (Zea mays), large crabgrass (Digitaria sanguinalis), woolly cupgrass (Eriochloa villosa), giant foxtail (Setaria faberii), goosegrass (Eleusine indica), johnsongrass (Sorghum halepense), kochia (Kochia scoparia), lambsquarters (Chenopodium album), morningglory (Ipomoea coccinea), eastern black (E.B.) nightshade (Solanum ptycanthum), yellow nutsedge (Cyperus esculentus), pigweed (Amaranthus retroflexus), common ragweed (Ambrosia elation), Russian thistle (Salsola iberica), soybean (Glycine max), common (oilseed) sunflower (Helianthus annuus), and velvetleaf (Abutilon theophrasti) were planted and treated preemergence with test chemicals formulated in a non-phytotoxic solvent mixture which included a surfactant.\n(§2) At the same time, plants selected from these crop and weed species and also winter barley (Hordeum vulgare), canarygrass (Phalaris minor), chickweed (Stellaria media) and windgrass (Apera spica-venti) were treated with postemergence applications of some of the test chemicals formulated in the same manner. Plants ranged in height from 2 to 18 cm (1- to 4-leaf stage) for postemergence treatments.\n(§3) Plant species in the flooded paddy test consisted of rice (Oryza sativa), umbrella sedge (Cyperus difformis), ducksalad (Heteranthera limosa) and barnyardgrass (Echinochloa crus-galli) grown to the 2-leaf stage for testing. At time of treatment, test pots were flooded to 3 cm above the soil surface, treated by application of test compounds directly to the paddy water, and then maintained at that water depth for the duration of the test. Treated plants and controls were maintained in a greenhouse for 13 to 15 days, after which time all species were compared to controls and visually evaluated. Plant response ratings, summarized in Table B, are based on a scale of 0 to 100 where 0 is no effect and 100 is complete control. A dash (-) response means no test result."}, "[2]": {"tested_on": "Italian ryegrass (Lolium multiflorum)", "details": "Preemergence", "excerpt": "as §1, §2, §3"}, "[3]": {"tested_on": "pigweed (Amaranthus retroflexus)", "details": "Preemergence", "excerpt": "as §1, §2, §3"}, "[4]": {"tested_on": "bermudagrass (Cynodon dactylon)", "details": "for Plant response rating, Bermudagrass: Preemergence", "excerpt": "as §1, §2, §3"}, "[5]": {"tested_on": "kochia (Kochia scoparia)", "details": "Preemergence", "excerpt": "as §1, §2, §3"}, "[6]": {"tested_on": "velvetleaf (Abutilon theophrasti)", "details": "Preemergence", "excerpt": "as §1, §2, §3"}, "[7]": {"tested_on": "morningglory (Ipomoea coccinea)", "details": "Preemergence", "excerpt": "as §1, §2, §3"}, "[8]": {"tested_on": "downy bromegrass (Bromus tectorum)", "details": "Preemergence", "excerpt": "as §1, §2, §3"}, "[9]": {"tested_on": "eastern black (E.B.) nightshade (Solanum ptycanthum)", "details": "Preemergence", "excerpt": "as §1, §2, §3"}, "[10]": {"tested_on": "surinam grass (Brachiaria decumbens)", "details": "Preemergence", "excerpt": "as §1, §2, §3"}, "[11]": {"tested_on": "green foxtail (Setaria viridis)", "details": "Preemergence", "excerpt": "as §1, §2, §3"}, "[12]": {"tested_on": "woolly cupgrass (Eriochloa villosa)", "details": "Preemergence", "excerpt": "as §1, §2, §3"}, "[13]": {"tested_on": "soybean (Glycine max)", "details": "Preemergence", "excerpt": "as §1, §2, §3"}, "[14]": {"details": "31 g ai/ha, 0 to 100 scale, 0 no effect, 100 complete control"}},
  "data": [
    {"smiles": "Cc1cc(-c2ccc(C(F)(F)F)cc2)nn1-c1c(OC(=O)C(C)(C)C)cnn(C)c1=O", "note": "[Compound 2]", "values": [
      {"measurement": "Plant response rating, Corn", "setting": "[1]; [14]", "result": 50},
      {"measurement": "Plant response rating, Corn", "setting": "[1]; 62 g ai/ha, scale 0 to 100", "result": 90},
      {"measurement": "Plant response rating, Corn", "setting": "[1]; 125 g ai/ha, scale 0 to 100", "result": 95},
      {"measurement": "Plant response rating, Corn", "setting": "[1]; 250 g ai/ha, scale 0 to 100", "result": 95},
      {"measurement": "Plant response rating, Ryegrass, Italian", "setting": "[2]; [14]", "result": 75},
      {"measurement": "Plant response rating, Ryegrass, Italian", "setting": "[2]; 62 g ai/ha, scale 0 to 100", "result": 100},
      {"measurement": "Plant response rating, Ryegrass, Italian", "setting": "[2]; 125 g ai/ha, scale 0 to 100", "result": 100},
      {"measurement": "Plant response rating, Ryegrass, Italian", "setting": "[2]; 250 g ai/ha, scale 0 to 100", "result": 100},
      {"measurement": "Plant response rating, Pigweed", "setting": "[3]; [14]", "result": 0},
      {"measurement": "Plant response rating, Pigweed", "setting": "[3]; 62 g ai/ha, scale 0 to 100", "result": 0},
      {"measurement": "Plant response rating, Pigweed", "setting": "[3]; 125 g ai/ha, scale 0 to 100", "result": 70},
      {"measurement": "Plant response rating, Pigweed", "setting": "[3]; 250 g ai/ha, scale 0 to 100", "result": 70},
      {"measurement": "Bermudagrass plant response rating", "setting": "[4]; 250 g ai/ha, preemergence, 0-100 scale", "result": 100},
      {"measurement": "Plant response rating, Bermudagrass", "setting": "[4]; [14]", "result": 100},
      {"measurement": "Plant response rating, Bermudagrass", "setting": "[4]; 62 g ai/ha, scale 0 to 100", "result": 100},
      {"measurement": "Plant response rating, Bermudagrass", "setting": "[4]; 125 g ai/ha, scale 0 to 100", "result": 100},
      {"measurement": "Plant response rating, Kochia", "setting": "[5]; [14]", "result": 0},
      {"measurement": "Plant response rating, Kochia", "setting": "[5]; 62 g ai/ha, scale 0 to 100", "result": 0},
      {"measurement": "Plant response rating, Kochia", "setting": "[5]; 125 g ai/ha, scale 0 to 100", "result": 0},
      {"measurement": "Plant response rating, Kochia", "setting": "[5]; 250 g ai/ha, scale 0 to 100", "result": 50},
      {"measurement": "Plant response rating, Velvetleaf", "setting": "[6]; [14]", "result": 0},
      {"measurement": "Plant response rating, Velvetleaf", "setting": "[6]; 62 g ai/ha, scale 0 to 100", "result": 0},
      {"measurement": "Plant response rating, Velvetleaf", "setting": "[6]; 125 g ai/ha, scale 0 to 100", "result": 0},
      {"measurement": "Plant response rating, Velvetleaf", "setting": "[6]; 250 g ai/ha, scale 0 to 100", "result": 10},
      {"measurement": "Plant response rating, Morningglory", "setting": "[7]; [14]", "result": 0},
      {"measurement": "Plant response rating, Morningglory", "setting": "[7]; 62 g ai/ha, scale 0 to 100", "result": 0},
      {"measurement": "Plant response rating, Morningglory", "setting": "[7]; 125 g ai/ha, scale 0 to 100", "result": 0},
      {"measurement": "Plant response rating, Morningglory", "setting": "[7]; 250 g ai/ha, scale 0 to 100", "result": 0},
      {"measurement": "Plant response rating, Bromegrass, Downy", "setting": "[8]; [14]", "result": 0},
      {"measurement": "Plant response rating, Bromegrass, Downy", "setting": "[8]; 62 g ai/ha, scale 0 to 100", "result": 20},
      {"measurement": "Plant response rating, Bromegrass, Downy", "setting": "[8]; 125 g ai/ha, scale 0 to 100", "result": 70},
      {"measurement": "Plant response rating, Nightshade, E. B.", "setting": "[9]; [14]", "result": 0},
      {"measurement": "Plant response rating, Nightshade, E. B.", "setting": "[9]; 62 g ai/ha, scale 0 to 100", "result": 0},
      {"measurement": "Plant response rating, Nightshade, E. B.", "setting": "[9]; 125 g ai/ha, scale 0 to 100", "result": 0},
      {"measurement": "Plant response rating, Nightshade, E. B.", "setting": "[9]; 250 g ai/ha, scale 0 to 100", "result": 0},
      {"measurement": "Plant response rating, Surinam Grass", "setting": "[10]; [14]", "result": 85},
      {"measurement": "Plant response rating, Surinam Grass", "setting": "[10]; 62 g ai/ha, scale 0 to 100", "result": 85},
      {"measurement": "Plant response rating, Surinam Grass", "setting": "[10]; 250 g ai/ha, scale 0 to 100", "result": 100},
      {"measurement": "Plant response rating, Foxtail, Green", "setting": "[11]; [14]", "result": 90},
      {"measurement": "Plant response rating, Foxtail, Green", "setting": "[11]; 62 g ai/ha, scale 0 to 100", "result": 95},
      {"measurement": "Plant response rating, Foxtail, Green", "setting": "[11]; 125 g ai/ha, scale 0 to 100", "result": 100},
      {"measurement": "Plant response rating, Foxtail, Green", "setting": "[11]; 250 g ai/ha, scale 0 to 100", "result": 100},
      {"measurement": "Plant response rating, Cupgrass, Woolly", "setting": "[12]; [14]", "result": 70},
      {"measurement": "Plant response rating, Cupgrass, Woolly", "setting": "[12]; 62 g ai/ha, scale 0 to 100", "result": 80},
      {"measurement": "Plant response rating, Cupgrass, Woolly", "setting": "[12]; 125 g ai/ha, scale 0 to 100", "result": 80},
      {"measurement": "Plant response rating, Cupgrass, Woolly", "setting": "[12]; 250 g ai/ha, scale 0 to 100", "result": 100},
      {"measurement": "Plant response rating, Soybean", "setting": "[13]; [14]", "result": 0},
      {"measurement": "Plant response rating, Soybean", "setting": "[13]; 62 g ai/ha, scale 0 to 100", "result": 0},
      {"measurement": "Plant response rating, Soybean", "setting": "[13]; 125 g ai/ha, scale 0 to 100", "result": 0},
      {"measurement": "Plant response rating, Soybean", "setting": "[13]; 250 g ai/ha, scale 0 to 100", "result": 0}
    ]}
  ]
}
